Data as given in patent US20090016991A1, “Rxr Antagonist Treatment Against Multiple Sclerosis” (priority 2004, published 2009).
“Also recorded” adds a separate entry of the source.

Assays:
synovial fibroblasts = experiment: In vitro cartilage degradation by RA synovial fibroblasts (sGAG release); type: cell-based, human; details: for Release of sGAG: 14 days
Protocol: (§1) Methods: The effect of RXR antagonists on the activity of synovial fibroblasts, dependent on their state of activation, i.e. modified by a concomitant stimulation by the inflammatory cytokine Interleukin-1β (IL-1β), was determined. Furthermore, it was determined whether this was accompanied by a modulation in the accumulation of the mRNA encoding catabolic enzyme matrix metalloproteinase-1 (MMP-1), responsible for degradation of human cartilage and consequently joint destruction in man. Adherent synovial fluid cells taken from a patient with RA were used after 5 passages in an in vitro assay for cartilage destruction. The cells incubated in flasks coated with 0.1% (0.1 g/100 ml) human cartilage powder were fixed using Matrigel® (BD Biosciences, Becton, Dickinson & Co., Boston, Mass., USA). The release of sulphated glycosaminoglycan (sGAG) into the culture medium was monitored by a commercial colorimetric test according to a method described by S. Björnsson, see Anal. Biochem. 256, 229-237 (1998) using an alcian blue dot plot analysis, and the accumulation of mRNA encoding MMP-1 was quantified by real time PCR (TaqMan® (Roche Diagnostics, Basle, Switzerland)).
The retinoid agonists all-trans retinoic acid and 9-cis retinoic acid, both physiological metabolites of vitamin A, as well as the RXR antagonist compound A, diluted first in ethanol, and then diluted with vehicle or medium to the desired dose/concentration were tested in a time course (0-35 days for the in vitro assay, 0-48 hours for MMP-1 mRNA, see tables 7, 8 and 10) and dose-dependent (10^−7 to 10^−9 M, see tables 5, 6 and 9). This was conducted in the presence or absence of IL-1β (100 pg/ml).

MMP-1 mRNA = MMP-1 mRNA accumulation in synovial fibroblasts (real time PCR); type: cell-based, human
Protocol: as §1, with “Switzerland)). […] This was conducted in the presence or absence of IL-1β (100 pg/ml).” for “Switzerland)).”

MMP-9 = MMP-9 protein expression in human PBMC (zymography and ELISA); type: cell-based; details: for MMP-9 Inhibition of expression: vs vehicle control (0%)
Excerpt: For details on the method see: (A) Effect of RXR antagonists on expression of MMP-9 protein in human peripheral blood mononuclear cells (PBMC) in vitro, Leppert D et al, J Immunol 1995, 154:4379-4389; (B) Leppert D et al, Ann Neurol 1996, 40: 846-852; (C) Leppert D et al, Brain 1998, 121, 2327-2334; (D) Lindberg R et al, Brain 2001, 124: 1743-1753; (E) Gilli F et al, Brain 2004, 127: 1-10, which are incorporated by reference herein, especially with regard to the method.
Method: Fresh human peripheral blood mononuclear cells (PBMC) were prepared and expanded by stimulation with PHA as described in Leppert D et al, Ann Neurol 1996; 40: 846-852. 1×10^6 cells were pretreated with the RXR antagonist compound A in concentrations of 10^−6 M, 10^−7 M and 10^−8 M for 18 hours. Vehicle was used as control.
In two different experiments, after pretreatment with compound A, PBMCs were stimulated for 24 hours with Interleukin-2 (IL-2) 50 U/ml in one group, or not stimulated with IL-2 in another group.
The effect of the mentioned concentrations of compound A was compared with vehicle controls in the IL-2 stimulated and in the non IL-2 stimulated cultures of PBMC. The expression of MMP-9 protein was determined by analysis with zymography and ELISA, see especially references (A) under “Zymographic analysis of conditioned medium (CM)” and (C) under “ELISA (enzyme linked immunosorbent assay) for MMP-9” mentioned above, respectively.

[1] = absence of IL-1β, 10^−7 M, vehicle control 48
[2] = absence of IL-1β, 10^−8 M, vehicle control 48
[3] = absence of IL-1β, 10^−8 M, day 7, control 23
[4] = absence of IL-1β, 10^−8 M, day 14, control 48
[5] = absence of IL-1β, 10^−8 M, day 21, control 84
[6] = absence of IL-1β, 10^−8 M, day 28, control 112
[7] = absence of IL-1β, 10^−8 M, day 35, control 117
[8] = absence of IL-1β, 10^−9 M, vehicle control 48
[9] = presence of 100 pg/ml IL-1β, 10^−7 M, vehicle control 173
[10] = presence of 100 pg/ml IL-1β, 10^−8 M, vehicle control 173
[11] = presence of 100 pg/ml IL-1β, 10^−8 M, day 7, control 86
[12] = presence of 100 pg/ml IL-1β, 10^−8 M, day 14, control 173
[13] = presence of 100 pg/ml IL-1β, 10^−8 M, day 21, control 212
[14] = presence of 100 pg/ml IL-1β, 10^−8 M, day 28, control 249
[15] = presence of 100 pg/ml IL-1β, 10^−8 M, day 35, control 271
[16] = presence of 100 pg/ml IL-1β, 10^−9 M, vehicle control 173
[17] = 10^−7 M, after 24 hours, vehicle control 1
[18] = 10^−8 M, 12 hours, control 1.13
[19] = 10^−8 M, 48 hours, control 1.09
[20] = 10^−8 M, after 24 hours, vehicle control 1
[21] = 10^−9 M, after 24 hours, vehicle control 1

SMILES: CC1=C(/C=C/C(C)=C\C=C\C(C)=C\C(=O)O)C(C)(C)CCC1 [9-cis RA, 9-cis retinoic acid, reference compound]
- Release of sGAG (synovial fibroblasts; [1]): 189 µg/mL
- Release of sGAG (synovial fibroblasts; [2]): 107 µg/mL
- Cumulative sGAG release (synovial fibroblasts; [3]): 44 µg/mL
- Cumulative sGAG release (synovial fibroblasts; [4]): 107 µg/mL
- Cumulative sGAG release (synovial fibroblasts; [5]): 206 µg/mL
- Cumulative sGAG release (synovial fibroblasts; [6]): 253 µg/mL
- Cumulative sGAG release (synovial fibroblasts; [7]): 292 µg/mL
- Release of sGAG (synovial fibroblasts; [8]): 64 µg/mL
- Effect on cartilage destruction in vitro (basal activity of synovial fibroblasts) (synovial fibroblasts; absence of IL-1β, in words): increased cartilage destruction in vitro in a dose-dependent manner
- Effect on cartilage destruction in vitro, time course (synovial fibroblasts; presence and absence of IL-1β, in words): markedly increased cartilage destruction
- Release of sGAG (synovial fibroblasts; [9]): 221 µg/mL
- Release of sGAG (synovial fibroblasts; [10]): 189 µg/mL
- Cumulative sGAG release (synovial fibroblasts; [11]): 68 µg/mL
- Cumulative sGAG release (synovial fibroblasts; [12]): 189 µg/mL
- Cumulative sGAG release (synovial fibroblasts; [13]): 330 µg/mL
- Cumulative sGAG release (synovial fibroblasts; [14]): 407 µg/mL
- Cumulative sGAG release (synovial fibroblasts; [15]): 441 µg/mL
- Release of sGAG (synovial fibroblasts; [16]): 204 µg/mL
- MMP-1 mRNA (fold increase of baseline value) (MMP-1 mRNA; [17]): 2.60 relative units
- MMP-1 mRNA (fold increase of baseline value) (MMP-1 mRNA; 10^−8 M, 0 hours): 1 relative units
- MMP-1 mRNA (fold increase of baseline value) (MMP-1 mRNA; 10^−8 M, 2 hours): 0.98 relative units
- MMP-1 mRNA (fold increase of baseline value) (MMP-1 mRNA; 10^−8 M, 6 hours): 1.31 relative units
- MMP-1 mRNA (fold increase of baseline value) (MMP-1 mRNA; [18]): 3.39 relative units
- MMP-1 mRNA (fold increase of baseline value) (MMP-1 mRNA; 10^−8 M, 24 hours): 3.79 relative units
- MMP-1 mRNA (fold increase of baseline value) (MMP-1 mRNA; [19]): 1.47 relative units
- MMP-1 mRNA (fold increase of baseline value) (MMP-1 mRNA; [20]): 3.39 relative units
- MMP-1 mRNA (fold increase of baseline value) (MMP-1 mRNA; [21]): 1.54 relative units

SMILES: CCCCOc1c(\C(C)=C/C=C/C(C)=C/C(=O)O)cc(C(C)(C)C)cc1C(C)(C)C [compound A, (2E,4E,6Z)-7-[2-butoxy-3,5-bis(1,1-dimethylethyl)phenyl]-3-methyl-2,4,6-octatrienoic acid]
- Effect on production, release and/or activity (expression) of MMP-9 (MMP-9; PBMC, IL-2 stimulated and not stimulated, ELISA and zymography, in words): very strong suppressive effect; also recorded: marked suppressive or inhibitory effect
- MMP-9 Protein (total protein in the supernatant) (MMP-9; PBMCs not stimulated with IL-2, 10^−6 M, 18 h pretreatment): 33 ng/mL
- MMP-9 Inhibition of expression (MMP-9; PBMCs not stimulated with IL-2, 10^−6 M): 53%
- MMP-9 Protein (total protein in the supernatant) (MMP-9; PBMCs not stimulated with IL-2, 10^−7 M, 18 h pretreatment): 43 ng/mL
- MMP-9 Inhibition of expression (MMP-9; PBMCs not stimulated with IL-2, 10^−7 M): 39%
- MMP-9 Protein (total protein in the supernatant) (MMP-9; PBMCs not stimulated with IL-2, 10^−8 M, 18 h pretreatment): 51 ng/mL
- MMP-9 Inhibition of expression (MMP-9; PBMCs not stimulated with IL-2, 10^−8 M): 28%
- MMP-9 Protein (total protein in the supernatant) (MMP-9; PBMCs stimulated with IL-2 50 U/ml 24 h, 10^−6 M): 29 ng/mL
- MMP-9 Protein (total protein in the supernatant) (MMP-9; PBMCs stimulated with IL-2 50 U/ml 24 h, 10^−7 M): 41 ng/mL
- MMP-9 Protein (total protein in the supernatant) (MMP-9; PBMCs stimulated with IL-2 50 U/ml 24 h, 10^−8 M): 40 ng/mL
- MMP-9 Inhibition of expression (MMP-9; PBMCs stimulated with IL-2, 10^−6 M): 52%
- MMP-9 Inhibition of expression (MMP-9; PBMCs stimulated with IL-2, 10^−7 M): 33%
- MMP-9 Inhibition of expression (MMP-9; PBMCs stimulated with IL-2, 10^−8 M): 34%
- Release of sGAG (synovial fibroblasts; [1]): 39 µg/mL
- Release of sGAG (synovial fibroblasts; [2]): 57 µg/mL
- Cumulative sGAG release (synovial fibroblasts; [3]): 44 µg/mL
- Cumulative sGAG release (synovial fibroblasts; [4]): 57 µg/mL
- Cumulative sGAG release (synovial fibroblasts; [5]): 57 µg/mL
- Cumulative sGAG release (synovial fibroblasts; [6]): 39 µg/mL
- Cumulative sGAG release (synovial fibroblasts; [7]): 34 µg/mL
- Release of sGAG (synovial fibroblasts; [8]): 46 µg/mL
- Effect on cartilage destruction in vitro (basal activity of synovial fibroblasts) (synovial fibroblasts; absence of IL-1β, in words): no effect
- Release of sGAG (synovial fibroblasts; [9]): 41 µg/mL
- Release of sGAG (synovial fibroblasts; [10]): 89 µg/mL
- Cumulative sGAG release (synovial fibroblasts; [11]): 67 µg/mL
- Cumulative sGAG release (synovial fibroblasts; [12]): 89 µg/mL
- Cumulative sGAG release (synovial fibroblasts; [13]): 89 µg/mL
- Cumulative sGAG release (synovial fibroblasts; [14]): 173 µg/mL
- Cumulative sGAG release (synovial fibroblasts; [15]): 56 µg/mL
- Release of sGAG (synovial fibroblasts; [16]): 144 µg/mL
- Effect on IL-1β dependent cartilage destruction (sGAG) (synovial fibroblasts; presence of IL-1β, in words): markedly inhibited
- MMP-1 mRNA (fold increase of baseline value) (MMP-1 mRNA; [17]): 0.68 relative units
- MMP-1 mRNA (fold increase of baseline value) (MMP-1 mRNA; 10^−8 M, 0 hours): 1 relative units
- MMP-1 mRNA (fold increase of baseline value) (MMP-1 mRNA; 10^−8 M, 2 hours): 1.13 relative units
- MMP-1 mRNA (fold increase of baseline value) (MMP-1 mRNA; 10^−8 M, 6 hours): 0.81 relative units
- MMP-1 mRNA (fold increase of baseline value) (MMP-1 mRNA; [18]): 1.12 relative units
- MMP-1 mRNA (fold increase of baseline value) (MMP-1 mRNA; 10^−8 M, 24 hours): 0.87 relative units
- MMP-1 mRNA (fold increase of baseline value) (MMP-1 mRNA; [19]): 0.83 relative units
- MMP-1 mRNA (fold increase of baseline value) (MMP-1 mRNA; [20]): 1.12 relative units
- MMP-1 mRNA (fold increase of baseline value) (MMP-1 mRNA; [21]): 1.05 relative units
